Data reported in patent US20220081444A1, “6,7-DIHYDRO-4H-PYRAZOLO[1,5-A]PYRAZINE INDOLE-2-CARBOXAMIDES ACTIVE AGAINST THE HEPATITIS B VIRUS (HBV)” (AiCuris GmbH & Co. KG, priority 2018, published 2022).
Where a name gives a salt, the structure may show the parent alone.

These molecules were tested on HBV. Details: Hepatitis B virus, HePAD38, 144 h, read-out: Cell Activity (EC50).

| SMILES | EC50 |
| --- | --- |
| CC(C)(CO)CNc1cc2n(n1)CCN(C(=O)c1cc3ccccc3[nH]1)C2 [Example 59, 3-{[5-(1H-indole-2-carbonyl)-4H,5H,6H,7H-pyrazolo[1,5-a]pyrazin-2-yl]amino}-2,2-dimethylpropan-1-ol] | < 1000 nM |
| O=C(Nc1cc2n(n1)CCN(C(=O)c1cc3ccccc3[nH]1)C2)C1CCNC(C(F)(F)F)C1 (centres unmarked) [Example 61, N-[5-(1H-indole-2-carbonyl)-4H,5H,6H,7H-pyrazolo[1,5-a]pyrazin-2-yl]-2-(trifluoromethyl)piperidine-4-carboxamide] | < 1000 nM |
| O=C(c1cc2ccccc2[nH]1)N1CCn2nc(NCC3CCOC3)cc2C1 (centres unmarked) [Example 31, 5-(1H-indole-2-carbonyl)-N-[(oxolan-3-yl)methyl]-4H,5H,6H,7H-pyrazolo[1,5-a]pyrazin-2-amine] | < 1000 nM |
| O=C(c1cc2ccccc2[nH]1)N1CCn2nc(NS(=O)(=O)c3cccnc3)cc2C1 [Example 50, N-[5-(1H-indole-2-carbonyl)-4H,5H,6H,7H-pyrazolo[1,5-a]pyrazin-2-yl]pyridine-3-sulfonamide] | < 1000 nM |
| CC1(CNc2cc3n(n2)CCN(C(=O)c2cc4ccccc4[nH]2)C3)CCOC1 (centres unmarked) [Example 75, 5-(1H-indole-2-carbonyl)-N-[(3-methyloxolan-3-yl)methyl]-4H,5H,6H,7H-pyrazolo[1,5-a]pyrazin-2-amine] | < 1000 nM |
| CCc1cc(F)cc2[nH]c(C(=O)N3CCn4nc(NS(=O)(=O)C5CC5)cc4C3)cc12 [Example 39, N-[5-(4-ethyl-6-fluoro-1H-indole-2-carbonyl)-4H,5H,6H,7H-pyrazolo[1,5-a]pyrazin-2-yl]cyclopropanesulfonamide] | < 1000 nM |
| O=C(c1cc2ccccc2[nH]1)N1CCn2nc(NCC3(O)CC(F)(F)C3)cc2C1 [Example 83, 3,3-difluoro-1-({[5-(1H-indole-2-carbonyl)-4H,5H,6H,7H-pyrazolo[1,5-a]pyrazin-2-yl]amino}methyl)cyclobutan-1-ol] | < 1000 nM |
| O=C(Nc1cc2n(n1)CCN(C(=O)c1cc3ccccc3[nH]1)C2)C1CCOC1 (centres unmarked) [Example 30, N-[5-(1H-indole-2-carbonyl)-4H,5H,6H,7H-pyrazolo[1,5-a]pyrazin-2-yl]oxolane-3-carboxamide] | < 1000 nM |
| O=C(Nc1cc2n(n1)CCN(C(=O)c1cc3ccccc3[nH]1)C2)C1CCN(CC(F)(F)F)CC1 [Example 63, N-[5-(1H-indole-2-carbonyl)-4H,5H,6H,7H-pyrazolo[1,5-a]pyrazin-2-yl]-1-(2,2,2-trifluoroethyl)piperidine-4-carboxamide] | < 1000 nM |
| O=C(Nc1cc2n(n1)CCN(C(=O)c1cc3ccccc3[nH]1)C2)C1CNC1 [Example 4, N-[5-(1H-indole-2-carbonyl)-4H,5H,6H,7H-pyrazolo[1,5-a]pyrazin-2-yl]azetidine-3-carboxamide Hydrochloride] | 1000 to 10000 nM |
| O=C(c1cc2ccccc2[nH]1)N1CCn2nc(N[C@H]3C[C@@H](O)C3)cc2C1 [Example 91, (1s,3s)-3-{[5-(1H-indole-2-carbonyl)-4H,5H,6H,7H-pyrazolo[1,5-a]pyrazin-2-yl]amino}cyclobutan-1-ol] | < 1000 nM |
| O=C(Nc1cc2n(n1)CCN(C(=O)c1cc3ccccc3[nH]1)C2)C1CCNCC1 [Example 41, N-[5-(1H-indole-2-carbonyl)-4H,5H,6H,7H-pyrazolo[1,5-a]pyrazin-2-yl]piperidine-4-carboxamide Hydrochloride] | < 1000 nM |
| COCC1(S(=O)(=O)Nc2cc3n(n2)CCN(C(=O)c2cc4ccccc4[nH]2)C3)CC1 [Example 52, N-[5-(1H-indole-2-carbonyl)-4H,5H,6H,7H-pyrazolo[1,5-a]pyrazin-2-yl]-1-(methoxymethyl)cyclopropane-1-sulfonamide] | < 1000 nM |
| O=C(c1cc2c(Cl)cccc2[nH]1)N1CCn2nc(NC3CCC(O)CC3)cc2C1 (centres unmarked) [Example 3, 4-{[5-(4-chloro-1H-indole-2-carbonyl)-4H,5H,6H,7H-pyrazolo[1,5-a]pyrazin-2-yl]amino}cyclohexan-1-ol] | < 1000 nM |
